“Also recorded” adds a separate entry of the source.
Columns and labels:
[1] = cited from earlier work; for Effect on central regulation of feeding behavior, in words: peripheral administration, ref [15], [45]
other Y receptors = conditions: cited from earlier work; for Effects at other Y receptors, in words: ref [15]; for Binding to other Y receptors, in words: ref [23]
NPFF receptors = conditions: ref [16]–[19]; cited from earlier work
rat Y1 receptor = assay: Rat Y1 receptor binding, competition with 125I-pPYY; conditions: competition with iodinated PYY; CHO cells expressing rat Y1 receptor
[2] = IV peptide MAP and HR cardiovascular responses in urethane-anesthetized rats; format: in vivo, rat (Sprague Dawley); conditions: for Cardiovascular response (MAP and HR), in words: IV γ-MSH 15 nmol or NPY 5 nmol; for Cardiovascular response (MAP and HR), in words / Increase in MAP: rats; for Increase in MAP: IV, compare Fig. 5a with Fig. 4b
[3] = ref [8], cited from earlier work
[4] = cited from earlier work
Y1 receptor = format: cell-based; conditions: 50 nM, HEK tsA201 cells expressing Y1 receptor and N-type VDCC; for Reduction of IBa (N-type VDCC barium current): whole-cell, 22°C, pH 7.20
[5] = system: sensory neuron-specific receptor (SNSR1); conditions: ref [65], [66]; cited from earlier work
[6] = system: IV γ-MSH cardiovascular response; assay: BIBO3304 effect on IV γ-MSH and γ-MSH6–12 cardiovascular responses; format: in vivo, rat (Sprague Dawley)
[7] = system: IV NPY cardiovascular response; assay: BIBO3304 effect on IV NPY, NPY analog and ANG II cardiovascular responses; format: in vivo, rat (Sprague Dawley); conditions: for PRE vs POST BIBO3304 pressor response, in words: IV peptide
[8] = system: sensory neuron-specific receptor (SNSR1); conditions: ref [65], [66]; cited from earlier work; remark: listed apart in the source
[9] = central BIBO3304, summary in Discussion
[10] = ICV BIBO3304, NPY 5 nmol IV, PRE vs POST, n = 7
[11] = NPY 5 nmol IV, change from baseline, mean ± standard error

## NC(N)=NCCC[C@@H](NC(=O)C(c1ccccc1)c1ccccc1)C(=O)NCc1ccc(O)cc1 [BIBP3226]
[1]
  Effect on central regulation of feeding behavior, in words: affects central regulation of feeding behavior
Other Y receptors
  Effects at other Y receptors, in words: not reported to have significant effects at other Y receptors
NPFF receptors
  Binding at NPFF receptors, in words: nanomolar-binding efficacy at NPFF receptors

## FMRFamide
Rat Y1 receptor
  Competition for rat Y1 receptor binding, in words: failed to bind to these receptors; also recorded: Neither γ-MSH nor FMRFamide (a model RFamide peptide) competed with iodinated PYY for binding to the rat Y1 receptors

## gamma-melanocyte stimulating hormone [γ-MSH]
[2]
  Cardiovascular response (MAP and HR), in words: produced both pressor and cardioaccelerator effects, with no evidence of a baroreceptor-mediated bradycardia; also recorded: produces a marked pressor and tachycardia response
[3]; mouse models
  Rise in MAP: 38 mmHg
[3]; peripheral administration
  Pressor effect in MC3-R and MC4-R knockout mice, in words: these effects can be elicited following peripheral administration of γ-MSH in the MC3-R and MC4-R knockout mice
Rat Y1 receptor
  Competition for rat Y1 receptor binding, in words: failed to compete with iodinated PYY for binding to the rat Y1 receptor; also recorded: Neither γ-MSH nor FMRFamide (a model RFamide peptide) competed with iodinated PYY for binding to the rat Y1 receptors
[4]; IV, forebrain CVO lesions, ref [42]
  Pressor response after forebrain CVO lesions, in words: attenuation of the IV γ-MSH cardiovascular response
[4]; carotid versus femoral artery administration, ref [31]
  Rightward shift of pressor dose–response curve: 10 fold
[4]; ref [9]–[11], [33]
  Mechanism of MAP and HR effects / baroreceptor reflex, in words: total inhibition of the baroreceptor reflex; also recorded: MAP and HR effects are due to an increase in preganglionic sympathetic drive, with no contribution of adrenal medullary catecholamine release
Y1 receptor
  Effect on N-type VDCC / IBa, in words: does not affect Y1 receptor agonist binding capacity or signaling; also recorded: did not bind to or allosterically regulate the Y1 receptor; also recorded: neither γ-MSH nor γ-MSH6–12 affected VDCC activity; also recorded: did not produce a significant inhibition of IBa relative to control
  Reduction of IBa (N-type VDCC barium current): 3–9%
[5]
  SNSR1 activation: ~40 nM

## NC(=O)NCc1ccc(CNC(=O)[C@@H](CCCN=C(N)N)NC(=O)C(c2ccccc2)c2ccccc2)cc1 [BIBO3304]
[6]; ICV BIBO3304, IV γ-MSH, PRE vs POST, n = 7
  Attenuation of total γ-MSH pressor response (MAP curve area, height × width): > 60%
[6]; ICV BIBO3304, several IV doses of γ-MSH and γ-MSH6–12, subsequent study
  Attenuation of MAP response of γ-MSH or γ-MSH6–12 (either peptide): > 50%
[6]; IV or ICV BIBO3304, peptide IV
  Attenuation of pressor responses of γ-MSH and γ-MSH6–12, in words: significantly attenuated the pressor responses of γ-MSH and the γ-MSH analog
[6]; central BIBO3304, IV γ-MSH, summary in Discussion
  Reduction in total γ-MSH pressor response: 75%
[6]; [9]
  Inhibition of HR response to several IV γ-MSH doses: ~50%
  Inhibition of peak MAP response to several IV γ-MSH doses: ~50%
[6]; central or peripheral BIBO3304 alone, n = 7
  Change in baseline cardiovascular parameters: no significant changes in any baseline cardiovascular parameters
[7]; ICV BIBO3304, IV NPY agonists 5 nmol
  Area under the MAP response curve, effect of BIBO3304, in words: Only the area under the NPY MAP response curve is reduced by drug treatment
[7]; ICV BIBO3304, NPY 5 nmol IV
  Effect on IV NPY cardiovascular response, in words: significant decrease in the IV NPY cardiovascular response; also recorded: blood pressure responses of NPY are significantly reduced
[7]; [10]
  Decrease in IV NPY-induced MAP response: > 40%
  Decrease in total NPY pressor response (MAP curve area): > 70%
[7]; ICV BIBO3304, two graded doses of either peptide IV (Fig. 5a)
  Effect on γ-MSH6–12 and NPY-CVa MAP responses, in words: produced significant MAP reductions for both doses of either peptide
[7]; ICV or IV BIBO3304, (D-Arg25) NPY IV
  Effect on (D-Arg25) NPY MAP / total pressor response, in words: did not change the MAP response of D-Arg25 NPY; also recorded: did not significantly affect the MAP response or total pressor response of a Y1 receptor agonist (D-Arg25) NPY; also recorded: no significant effect on D-Arg25 NPY
[7]; IV BIBO3304, two graded doses IV (Fig. 5b)
  Effect on γ-MSH6–12 and NPY-CVa MAP responses, in words (IV BIBO3304): significant reductions in MAP for both doses of γ-MSH6–12 and NPY-CVa
[7]; central or peripheral BIBO3304, NPY-CVa IV
  Effect on IV NPY-CVa cardiovascular activity, in words: IV NPY-CVa cardiovascular activity was sensitive to central or peripheral BIBO3304 administration
[7]; central or systemic BIBO3304, NPY-CVa 5 or 20 nM doses (so in the source) IV
  Reduction of IV NPY-CVa pressor response: up to 55%
[1]
  Effect on central regulation of feeding behavior, in words: affects central regulation of feeding behavior
Other Y receptors
  Effects at other Y receptors, in words: not reported to have significant effects at other Y receptors
  Binding to other Y receptors, in words: none of these receptors shows significant binding of BIBO3304
NPFF receptors
  Binding at NPFF receptors, in words: nanomolar-binding efficacy at NPFF receptors

## angiotensin II [ANG II]
[7]; IV ANG II 5 nmol, POST, mean ± standard error
  Peak MAP response, POST ICV BIBO3304: 54 ± 2 mmHg
[7]; IV ANG II 5 nmol, PRE, mean ± standard error
  Peak MAP response, PRE ICV BIBO3304: 66 ± 6 mmHg
[7]; ICV or IV BIBO3304
  PRE vs POST BIBO3304 pressor response, in words: not significantly different at pre and post central BIBO3304 administration
[7]; ICV or IV BIBO3304, listed as AII
  PRE vs POST BIBO3304 pressor response, in words: not significantly different

## Des-AA10–17-cyclo-7/21[Cys7,21, Pro34] NPY [NPY-CVa]
[2]; mean ± standard error
  Increase in MAP: 26 ± 3 mmHg
[1]; ref [23], [26]
  Orexigenic activity, in words: without orexigenic activity; also recorded: lacks Y1-like orexigenic activity
Other Y receptors
  Binding to other Y receptors, in words: significant binding to other Y receptors
[4]; ref [26]
  Pressor activity of NPY-CVa, in words: significant pressor activity

## neuropeptide Y [NPY]
[2]; IV NPY 5 nmol compared to γ-MSH, P <0.05, n = 7
  Duration of pressor response, in words: lasted significantly longer than that of γ-MSH for a relatively similar change in peak MAP
[2]
  Cardiovascular response (MAP and HR), in words: during the mid-point of the pressor response the bradycardia reversed to a cardioaccelerator response; also recorded: produces prolonged pressor and HR responses
[2]; mean ± standard error
  Increase in MAP: 41.9 ± 4 mmHg
[2]; [11]
  Peak bradycardia response: −53 ± 18 BPM
  Peak tachycardia response: 49 ± 14 BPM
[2]; baseline of the NPY 5 nmol IV group, mean ± standard error
  Baseline HR: 360 ± 11 BPM
[8]
  SNSR1 binding, in words: nanomolar NPY binding
Y1 receptor
  Effect on N-type VDCC / IBa, in words: significant decreases in N-type VDCC activity; also recorded: significantly different from the effects of γ-MSH or γ-MSH6–12
  Reduction of IBa (N-type VDCC barium current): ~50%

## (D-Arg25) NPY
[7]; ICV or IV BIBO3304, listed as (D-Arg^25) NPY
  PRE vs POST BIBO3304 pressor response, in words: not significantly different
[7]; ICV or IV BIBO3304, listed as D-Arg25 NPY
  PRE vs POST BIBO3304 pressor response, in words: lack of a significant difference in the PRE and POST cardiovascular responses

From PMC2714906 (Endocrine, 2009)
